From ChEMBL document CHEMBL3085704, “Methyl-thiazoles: a novel mode of inhibition with the potential to develop novel inhibitors targeting InhA in Mycobacterium tuberculosis” (J Med Chem, 2013) come the findings set out here.

Common to all, as to format: functional
Experiment [1] deals with Mycobacterium tuberculosis. The experiment is described as follows: Antitubercular activity against Mycobacterium tuberculosis H37Rv expressing inhA M103I mutant assessed as parasite growth inhibition after 7 days by Alamar Blue assay.
Experiment [2] deals with Mycobacterium tuberculosis. Kind of experiment: Antitubercular activity against Mycobacterium tuberculosis H37Rv expressing inhA G96V mutant assessed as parasite growth inhibition after 7 days by Alamar Blue assay. In general terms: The colour change of resazurin is a common sign of viable cells or microbes.
Experiment [3] has as its system Mycobacterium tuberculosis. The experiment is described as follows: Antitubercular activity against Mycobacterium tuberculosis H37Rv expressing inhA M103L mutant assessed as parasite growth inhibition after 7 days by Alamar Blue assay.

As usually defined, the MIC is the lowest concentration that inhibits growth of the organism. Turning to `Cc1csc([C@](C)(O)c2nnc(Nc3ccn(Cc4c(F)cccc4F)n3)s2)n1`, the MIC in experiment [1], in experiment [2] and in experiment [3] was above 25 µM throughout.

As to `Cc1csc(C(C)(O)c2nnc(Nc3ncn(Cc4c(F)cccc4F)n3)s2)n1` (racemic), the MIC in experiment [1], in experiment [2] and in experiment [3] was above 25 µM each time.

Consider `NNC(=O)c1ccncc1` [ISONIAZID], for which the figures for the minimal inhibitory concentration (MIC) in experiment [1], in experiment [2] and in experiment [3] were 0.06 µg/mL, 0.06 µg/mL and 0.03 µg/mL, respectively.

For `COc1c(N2C[C@@H]3CCCN[C@@H]3C2)c(F)cc2c(=O)c(C(=O)O)cn(C3CC3)c12` [MOXIFLOXACIN], the MIC in experiment [1], in experiment [2] and in experiment [3] was 0.12 µg/mL throughout.

Regarding `CO[C@H]1/C=C/O[C@@]2(C)Oc3c(C)c(O)c4c(O)c(c(/C=N/N5CCN(C)CC5)c(O)c4c3C2=O)NC(=O)/C(C)=C\C=C\[C@H](C)[C@H](O)[C@@H](C)[C@@H](O)[C@@H](C)[C@H](OC(C)=O)[C@@H]1C` [RIFAMPIN], the MIC in experiment [1] worked out at 0.007 µg/mL; in experiment [2], 0.01 µg/mL; in experiment [3] it was 0.007 µg/mL.
